The NIST ThermoML archive (doi:10.1021/je400839x)
± gives the expanded uncertainty stated by the source.

Assays:
[1] = for viscosity / speed of sound / mass density: 101 kPa, Liquid; for viscosity: Concentric cylinders viscometry; for speed of sound: Pulse-echo method; for mass density: Vibrating tube method
[2] = xn = mol fraction of the nth substance listed; details: 101 kPa, Liquid, x2 = 0; for viscosity: Concentric cylinders viscometry; for mass density: Vibrating tube method

CC(CC(C)(C)C)CC(C)(C)C [2,2,4,6,6-pentamethylheptane]
[1]
Details | mass density [kg/m3] | speed of sound [m/s] | viscosity [mPa·s]
293.15 K | 745.5 ± 0.6 | 1204 ± 2.2 | 1.29 ± 0.02
303.15 K | 738.2 ± 0.6 | 1164.9 ± 2.2 | 1.1 ± 0.01
313.15 K | 730.9 ± 0.6 | 1126.7 ± 2.2 | 0.941 ± 0.012
323.15 K | 723.5 ± 0.6 | 1089.3 ± 2.2 | 0.827 ± 0.011
333.15 K | 716.1 ± 0.6 | – | 0.726 ± 0.01
343.15 K | 708.6 ± 0.6 | – | 0.643 ± 0.01
353.15 K | 700.9 ± 0.5 | – | 0.573 ± 0.009
363.15 K | 693.2 ± 0.5 | – | 0.515 ± 0.009
373.15 K | 685.5 ± 0.5 | – | 0.467 ± 0.008

Details | surface tension liquid-gas [mN/m]
[1], 294 K, Pendant drop shape | 21.8 ± 0.4

CCCCCCCCCCCCCCCC [hexadecane]
[1]
Details | mass density [kg/m3] | viscosity [mPa·s]
293.15 K | 773.7 ± 0.3 | 3.44 ± 0.02
303.15 K | 766.8 ± 0.3 | 2.72 ± 0.02
313.15 K | 759.9 ± 0.3 | 2.21 ± 0.02
323.15 K | 752.9 ± 0.3 | 1.82 ± 0.01
333.15 K | 746 ± 0.3 | 1.53 ± 0.01
343.15 K | 739 ± 0.3 | 1.31 ± 0.01
353.15 K | 731.9 ± 0.3 | 1.13 ± 0.01
363.15 K | 724.8 ± 0.3 | 0.99 ± 0.009
373.15 K | 717.7 ± 0.3 | 0.876 ± 0.009

CCCCCCCCCCCCCCCC [hexadecane] + CC(CC(C)(C)C)CC(C)(C)C
[2]
Details | mass density [kg/m3] | viscosity [mPa·s]
293.15 K | 773.7 ± 0.3 | 3.44 ± 0.02
303.15 K | 766.8 ± 0.3 | 2.72 ± 0.02
313.15 K | 759.9 ± 0.3 | 2.21 ± 0.02
323.15 K | 752.9 ± 0.3 | 1.82 ± 0.01
333.15 K | 746 ± 0.3 | 1.53 ± 0.01
343.15 K | 739 ± 0.3 | 1.31 ± 0.01
353.15 K | 731.9 ± 0.3 | 1.13 ± 0.01
363.15 K | 724.8 ± 0.3 | 0.99 ± 0.009
373.15 K | 717.7 ± 0.3 | 0.876 ± 0.009
